Results from patent US12673039B2, “Methods of inducing autophagy using coumarin derivatives and related compounds” (Buck Institute for Research on Aging, priority 2019, dated 2026).

Legend:
[1] = tested on: SH-SY5Y cells; assay: Autophagic flux (LC3-II ± bafilomycin A1) in SH-SY5Y cells; format: cell-based, human; settings: presence and absence of bafliomycin A1
Method: FIG. 23, panels A-H: FXR modulation enhances HLH-30 expression in human neuronal SH-SY5Y cells. Panel A) Effects of AIC106 on human FXR activity was determined in a mammalian one-hybrid based kit assay by quantifying changes in the luciferase activity of FXR ligand (GW4064, GW) induced treatment. [N=3 independent experiments (mean±SD). ****p<0.0001, by one-way ANOVA with Tukey's multiple comparisons test]. Panel B) Protein expression of TFEB, cathepsin-D (CAT-D) and small heterodimer partner-1 (SHP-1) was determined by immunoblot in neuronal SH-SY5Y cells post-24 hours of treatment with AIC106 and DMSO-control. Panel C) AIC106 enhances autophagic flux in neuronal SH-SY5Y cells. Autophagic flux in DMSO-control and AIC106 treated neuronal cells was determined by quantifying levels of autophagosome specific LC3-II protein both in presence and absence of autophagy inhibitor bafliomycin A1 (Baf A, 10 nM). Panel D) Relative fold change in the band intensity of LC3-II protein, normalized to loading control actin. Values are relative to DMSO-control. […] Panel E) Effects of AIC106 treatment for 72 hours on basal TAU and phosphorylated-TAU in differentiated human neuronal SH-SHY5Y and heterozygous TSC1(+/−) mutant SH-SY5Y neuronal cells were quantitated by immunoblotting following total protein extraction. […]

[2] = tested on: C. elegans; assay: Autophagic flux and lysosomal reporters in C. elegans; format: in vivo
Method: FIGS. 12A-12B illustrate that coumarin 106 (“C1”, “AIC106”) promotes induction of autophagic markers. FIG. 12A) Increased APG:APL fusion as assessed by green to red fluorescence shift following addition of 20 μM C1 versus DMSO-only control to ttdLGG-1:GFP worms expressing a pH sensitive GFP. FIG. 12B) Increases in autophagic flux as assessed by increased GFP fluorescence within p62::GFP and plmp-1::GFP expressing worms following addition of 20 μM C1 versus DMSO-only controls.
FIG. 19, panels A-G: AIC106 increases autophagic flux and lysosomal function in C. elegans. Panel A) Relative fold change in mRNA of autophagosome-specific protein p62/Sqstm-1 compared to DMSO-control was quantified using qRT-PCR in young adult wild-type N2 worms post-24 hours treatment with AIC106. [N=3 independent experiments (mean±SD). *p<0.05 and **p<0.01, by one-way ANOVA with Sidak's multiple comparisons test]. Panel B) Changes in p62/SQSTM-1 expression were measured by quantifying GFP intensity in an individual GFP-tagged p62/SQSTM-1 worm (HZ589) post-24 hours treatment with AIC106 and DMSO-control, followed by RNAi treatment. [N=3 independent experiments (mean±SD). ****p<0.0001, by one-way ANOVA with Tukey's multiple comparisons test]. Panel C) p62/SQSTM-1; GFP (HZ589) was monitored by fluorescence microscopy. Panel D) Changes in lysosomal number were measured by quantifying GFP intensity in an individual GFP-tagged LMP-1 worm (RT258) post-24 hours treatment with AIC106 and DMSO-control. [N=3 independent experiments (mean±SD). ****p<0.0001, by unpaired t-test]. Panel E) RT258 worms were monitored by fluorescence microscopy. Panel F) Changes in lysosomal number were measured by quantifying fluorescence intensity in an individual Lysotracker Red stained wild type N2 worms post-24 hours treatment with AIC106 and DMSO-control. [N=3 independent experiments (mean±SD). ****p<0.0001, by unpaired t-test]. Panel G) Lysotracker Red stained wild type N2 worms were monitored by fluorescence microscopy.
FIG. 26, panels A-B: AIC106 enhances autophagy flux in C. elegans. Panel A) Monitoring of tandem reporter lgg-1p::mCherry::GFP::lgg-1 expressing worms was performed by fluorescence microscopy. Panel B) Effects of AIC106 treatment on GFP and mCherry by time were measured by fluorescence microscopy after AIC106 or DMSO-control treatment for 24 h. [N=3 independent experiments (mean±SD). *p<0.05 and **p<0.01, by unpaired t-test].
Synchronized populations of day-1 adult worms expressing reporter GFP transgene or stained with a dye/stain (Lysotracker and TMRM) and grown at 20° C. were transferred to compound or DMSO plates. Fluorescence expression was analyzed at the time specified for each individual strain (see figure legends). Worms were paralyzed in 2 mM levamisole, mounted on 2% agarose pads with glass cover slips, and imaged immediately with an Axio Zeiss microscope. Appropriate filters were used to visualize GFP, Lysotracker red and TMRM were visualized under rhodamine filter. Approximately 20-40 worms per treatment were used. Fluorescence intensity normalized to worm area was measured using NIH ImageJ software. Transgenic reporters used in the study are HZ589 him-5(e1490) V; bpIs151[sqst-1p::sqst-1::GFP+unc-76(+)], RT258 unc-119(ed3) III; pwIs50 [lmp-1::GFP+Cbr-unc-119(+)], UA44 UA44(baIn11[Pdat-1::α-syn, Pdat-1::GFP]), AM141 rmIs133 [unc-54p::Q40::YFP]LAMP-1:GFP.
Synchronized day-1 adult N2 worms were transferred to DMSO control or compound treated plates for 24 hours at 20° C. On day-2, worms were transferred to 35 mm OP50 seeded assay plates treated with compound or DMSO plates overlaid with 1 μM LysoTracker™ Red DND-99 (Molecular Probes) for 24 hours at 20° C. Post-24 hours on LysoTracker stain, worms were picked and washed in a fresh drop of 1×M9 medium to remove excess stain and mounted on 2% agarose pad slides for microscopic visualization. Worm images were taken in a Zeiss Imager Z1 fluorescence microscope using rhodamine filters. […]

O=c1oc2c3c4c(cc2c2c1CCC2)CCCN4CCC3 [C1, 2,3,6,7,10,11-Hexahydro-1H,5H-cyclopenta(3,4)(1)benzopyrano(6,7,8-ij)quinolizin-12(9H)-one]
autophagic flux (LC3 turnover) [1]: enhanced autophagic flux | autophagic flux ([2]; 20 μM C1 (FIG. 12)): increased autophagic flux | tandem mCherry-GFP-LGG-1 reporter (autophagosomal:lysosomal fusion) ([2]; 24 h (FIG. 26)): decreased GFP intensity in conjunction with significant increase in mCherry-only intensity | p62/SQSTM-1 protein levels (GFP) ([2]; HZ589 worms, 24 hours): enhanced p62/SQSTM-1 protein levels | lysosomal biogenesis by LysoTracker red staining ([2]; N2 worms): validated via LysoTracker red staining | p62/Sqstm-1 mRNA ([2]; N2 worms, 24 hours): increased mRNA levels of p62/Sqstm-1 | lysosomal biogenesis (GFP-tagged LAMP-1/LMP-1) ([2]; RT258 worms, 24 hours): increase in lysosomal biogenesis
